Test results published in patent US10722575B2, “Use of 1,3-diphenylprop-2-en-1-one derivatives for treating liver disorders” (GENFIT, priority 2009, dated 2020).

Tests used:
[1] = test system: hApoE2 KI/PPARalpha KO mice; experiment: hApoE2 KI/PPARalpha KO mice on Western diet, hepatic gene expression by quantitative RT-PCR; assay type: in vivo; conditions: 30 mg/kg/day by gavage, 6 weeks
Method: (§1) The compounds of the General Formula (I) were tested in vivo in a high fat diet mice model. Dyslipidemic “humanized” hApoE2 KI deficient for PPARalpha were fed a Western diet and treated during 6 weeks. The compounds of interest, including the Compound 29 of WO 2004/005233 at 30 mg/kg/day and the Compound 1 of WO 2007/147879 at 30 mg/kg/day were orally administrated by gavage. At the end of the protocol, animals were sacrificed, livers were harvested and the hepatic expression of relevant genes implicated in the liver inflammation and the fibrosis processes were evaluated by quantitative RT-PCR. In parallel, liver triglycerides contents were evaluated (Panels A-D). Statistical analysis was performed as indicated for FIG. 1.
(§2) Animals were fed a Western diet (20% saturated fat and 0.2% cholesterol, Harlan Teklad TD88137) during 2 weeks in the first study, that involved the daily administration of Cpd 29 (at 30 mg/kg/day by oral gavage), and during 6 weeks in the second study, that involved the daily administration of Compound 1 of WO 2007147879 (Cpd1, at 30 mg/kg/day by oral gavage). Control animals were treated with vehicle only (Carboxymethlycellulose 1%+Tween-80 0.1%). Animals had access to food and water ad libitum.
At the end of the studies, the animals were weighed and sacrificed under anesthesia. Blood was collected from the retro-orbital sinus; plasma was obtained by centrifugation (4 000 rpm, at 4° C. for 15 min) and subsequently frozen and stored at −20° C. Tissues and livers were isolated and snap-frozen in liquid nitrogen and stored at −80° C. for subsequent analysis (gene expression and biochemistry) or fixed in 4% paraformaldehyde for histology.
Total RNA was isolated from frozen livers using the NucleoSpin® 96 RNA kit (Macherey Nagel), according to the manufacturer's instructions. Reverse transcription was performed on 1 μg of total RNA by action of 1 μl of MMLV-RT enzyme (Invitrogen) during 1 hour at 37° C. in a total volume of 30 μl. The reaction conditions were 1× buffer (Invitrogen), 1.5 mM DTT (Invitrogen), 0.18 mM dNTPs (Promega), 200 ng pdN6 (Amersham), 30U RNase inhibitor (Promega). Quantitative PCR was then carried out using the MyiQ Single-Color Real-Time PCR Detection System (Biorad). Briefly PCR reactions were performed in 96 well plates on 5 μl of diluted reverse transcription mix using the iQ SYBR Green Supermix kit. The reaction conditions were: 25 μl of volume reaction, 3 mM of MgCl2, and 0.5 μl of each reverse and forward primer solutions (10 pMol), Tm of 60° C.
The quantity of fluorescence emitted is directly proportional to the quantity of complementary DNA present at the start of the reaction and amplified during the PCR. The relative levels of expression were determined using the standard curve for each transcript. The results were then normalized in regard to the signals obtained with the 36B4 control (a reference transcript for hepatic gene expression). The induction factor, i.e. the ratio between the relative signal induced by the compound according to the invention and the average of the values relating to the control group, was then calculated for each sample. The higher this factor, the more the compound promotes target gene expression. The final result is depicted as the average of the induction values in each experimental group.
(§3) In another study, the liver-specific anti-inflammatory and anti-fibrotic properties effects of Cpd 29 and Compound 1 of WO 2007/147879 (Cpd 1) were evaluated in the hApoE2 KI/PPARalpha KO mice that were fed a Western diet and daily treated with the selected compounds during 6 weeks.

[2] = test system: hApoE2 KI/PPARalpha KO mice; experiment: hApoE2 KI/PPARalpha KO mice on Western diet, hepatic lipid analysis (liver triglycerides); assay type: in vivo; conditions: 30 mg/kg/day by gavage, 6 weeks, FIG. 4D
Method: as §1
as §2, with “Control animals were treated with vehicle only (Carboxymethlycellulose 1%+Tween-80 0.1%). Animals had access to food and water ad libitum.” left out
as §3

Structure (SMILES): CSc1ccc(C(=O)CCc2cc(C)c(OC(C)(C)C(=O)O)c(C)c2)cc1 [Cpd 1, 2-[2,6-dimethyl-4-[3-[4-(methylthio)phenyl]-3-oxo-propyl]phenoxy]-2-methylpropanoic acid]
- liver expression of TNFα ([1]; FIG. 4A): inhibited
- liver expression of TGFβ ([1]; FIG. 4B): inhibited
- liver expression of collagen ([1]; FIG. 4C): inhibited
- triglycerides accumulation in the liver [2]: prevented
